Consider two molecules from US20260191835A1, “COMBINATIONS COMPRISING A MENIN-MLL INHIBITOR AND AT LEAST ONE OTHER THERAPEUTIC AGENT” (JANSSEN PHARMACEUTICA NV, priority 2022, published 2026).

In one assay the test system is KO-52 cells. The experiment in a line: Proliferation assay (spheroid assay), KO-52 control cell line. The class given is cell-based. As to conditions: Homo sapiens, 192 h, 8 days; MLL wildtype control cell line; read-out: spheroid assay_KO-52 IC50. The protocol:
(§1) The anti-proliferative effect of menin/MLL protein/protein interaction inhibitor test compounds was assessed in human leukemia cell lines. The cell line MOLM14 harbors a MLL translocation and expresses the MLL fusion protein MLL-AF9, respectively, as well as the wildtype protein from the second allele. OCI-AML3 cells that carry the NPM1c gene mutation were also tested. […] KO-52 was used as a control cell line containing two MLL (KMT2A) wildtype alleles in order to exclude compounds that display general cytotoxic effects.
(§2) MOLM14 cells were cultured in RPMI-1640 (Sigma Aldrich) supplemented with 10% heat-inactivated fetal bovine serum (HyClone), 2 mM L-glutamine (Sigma Aldrich) and 50 μg/ml gentamycin (Gibco). KO-52 and OCI-AML3 cell lines were propagated in alpha-MEM (Sigma Aldrich) supplemented with 20% heat-inactivated fetal bovine serum (HyClone), 2 mM L-glutamine (Sigma Aldrich) and 50 µg/ml gentamycin (Gibco).
In order to assess the anti-proliferative effects, 200 MOLM14 cells, 200° C. […] Spheroid like growth was measured in real-time by live-cell imaging (IncuCyteZOOM, Essenbio, 4× objective) acquiring images at day 8. Confluence (%) as a measure of spheroid size was determined using an integrated analysis tool.
In order to determine the effect of the test compounds over time, the confluence in each well as a measure of spheroid size, was calculated. […]

The next assay deals with MOLM14 cells. The assay can be described thus: Proliferation assay (spheroid assay), MOLM14. The class given is cell-based. As to conditions: Homo sapiens, MOLM-14, 192 h, 8 days; read-out: spheroid assay_MOLM14 IC50. The protocol:
as §1, §2
In order to assess the anti-proliferative effects, 200 MOLM14 cells, […] or 300 KO-52 cells were seeded in 200 μl media per well in 96-well round bottom, ultra-low attachment plates (Costar, catalogue number 7007). Cell seeding numbers were chosen based on growth curves to ensure linear growth throughout the experiment. Test compounds were added at different concentrations and the DMSO content was normalized to 0.3%. Cells were incubated for 8 days at 37° C. and 5% CO2. Spheroid like growth was measured in real-time by live-cell imaging (IncuCyteZOOM, Essenbio, 4× objective) acquiring images at day 8. Confluence (%) as a measure of spheroid size was determined using an integrated analysis tool.
In order to determine the effect of the test compounds over time, the confluence in each well as a measure of spheroid size, was calculated. Confluence of the highest dose of a reference compound was used as baseline for the LC (Low control) and the confluence of DMSO treated cells was used as 0% cytotoxicity (High Control, HC).
Absolute IC50 values were calculated as percent change in confluence as follows: • LC=Low Control: cells treated with e.g. […] of the cytotoxic agent staurosporin, or e.g. cells treated with a high concentration of an alternative reference compound • HC=High Control: Mean confluence (%) (DMSO treated cells)
GraphPad Prism (version 7.00) was used to calculate the IC50. Dose-response equation was used for the plot of % Effect vs Log 10 compound concentration with a variable slope and fixing the maximum to 100% and the minimum to 0%.

The subject of a further assay is MEIS1 mRNA expression. The assay can be described thus: MEIS1 mRNA expression assay (Quantigene Singleplex) in MOLM14. It counts as cell-based. As to conditions: Homo sapiens, MOLM-14, 48 h, MOLM14 cells, 48 hours with compound. As for the experimental part:
2b) MEIS1 mRNA Expression Assay
MEIS1 mRNA expression upon treatment of compound was examined by Quantigene Singleplex assay (Thermo Fisher Scientific). This technology allows for direct quantification of mRNA targets using probes hybridizing to defined target sequences of interest and the signal is detected using a Multimode plate reader Envision (PerkinElmer). The MOLM14 cell line was used for this experiment. Cells were plated in 96-well plates at 3,750 cells/well in the presence of increasing concentrations of compounds. After incubation of 48 hours with compounds, cells were lysed in lysis buffer and incubated for 45 minutes at 55° C. Cell lysates were mixed with human MEIS1 specific capture probe or human RPL28 (Ribosomal Protein L28) specific probe as a normalization control, as well as blocking probes. Cell lysates were then transferred to the custom assay hybridization plate (Thermo Fisher Scientific) and incubated for 18 to 22 hours at 55° C. Subsequently, plates were washed to remove unbound materials followed by sequential addition of preamplifiers, amplifiers, and label probe. Signals (=gene counts) were measured with a Multimode plate reader Envision. IC50s were calculated by dose-response modelling using appropriate software. For all non-housekeeper genes response equal counts corrected for background and relative expression. For each sample, each test gene signal (background subtracted) was divided by the normalization gene signal (RPL28: background subtracted). Fold changes were calculated by dividing the normalized values for the treated samples by the normalized values for the DMSO treated sample. Fold changes of each target gene were used for the calculation of IC50s.

Another assay deals with MOLM-13 tumors. The assay can be described thus: Efficacy (survival) in disseminated MOLM-13 (KMT2A-rearranged) model in NSG mice. The class given is in vivo. To be noted: NSG mice bearing established MOLM-13 tumors, vs vehicle; Azacitidine 2 mg/kg ip QD × 7; Compound 51 2 mg/kg po QD × 28; n = 10. As for the experimental part:
4) Efficacy of Menin-MLL Inhibitor in Combination with Azacitidine in MOLM-13 (KMT2A-Rearranged) Model in NSG Mice
Compound 51 was formulated in purified pyrogen-free deionized water, pH 4.0 and prepared to reach a total volume of 8 mL/kg. Doses were adjusted by individual body weight each day. Working stocks of Compound 51 were prepared once per week for each study and stored at 25° C.
Female NSG (NOD.Cg-Prkdc^scid Il2rg^tm1Wjl/SzJ) mice were used when they were approximately 6 to 8 weeks of age and weighed approximately 25 g. All animals could acclimate and recover from any shipping-related stress for a minimum of 7 days prior to experimental use. […]
Animals were monitored daily for clinical signs related to either compound toxicity or tumor burden (i.e., hind limb paralysis, lethargy, etc.).
For survival assessment, results were plotted as the percentage survival against days post tumor implant. […] Median survival was determined utilizing Kaplan-Meier survival analysis. The percent increased life span (ILS) was calculated as: ((median survival day of treated group−median survival day of control group)/median survival day of control group)×100. […]
Survival and body weight data were graphically represented utilizing Prism (Version 9). Statistical significance for body weights was evaluated as described above. […]

The structures appear in SMILES notation.

One may read the IC50 as the midpoint of a concentration-inhibition curve.

For the molecule `CC(=O)N1CCC(CN2CCC(Cc3cn(-c4ccc(F)cc4C(=O)N(C)C(C)C)c4cncc(C)c34)C2)CC1` (single isomer, unassigned) [Compound 50], the IC50 with KO-52 cells worked out at 2300 nM; in the assay on MOLM14 cells it was 39 nM; in the assay on MEIS1 mRNA expression, 89 nM.

With `Nc1ncn([C@@H]2O[C@H](CO)[C@@H](O)[C@H]2O)c(=O)n1` [Azacitidine, azacitidine, reference compound], the “% ILS (increased life span)” value in the assay with MOLM-13 tumors is listed as “*37%”.
